Results on one compound are retold here after patent publication WO2007026771A1, “点滴用注射剤” (Ono Pharmaceutical Co Ltd, priority 2005, dated 2007).

Each structure is given as a SMILES string. Entries after “also recorded” stand apart in the source; their conditions may differ.

A short description of data set [1]: pH of supernatant of aqueous suspension of compound A. The data set is classed as physicochemical.
Data set [2] can be described thus: Solubility of compound A in water at various pH values (5℃, 24 h, HPLC). The data set is classed as physicochemical.
Data set [3] concerns the target poly(ADP-ribose) polymerase (PARP) [ポリ(ADP−リボース)ポリメラーゼ] (Homo sapiens, UniProt P09874). The following applies: cited from earlier work.

poly(ADP-ribose) polymerase (PARP) [ポリ(ADP−リボース)ポリメラーゼ], sequence (P09874 whole entry): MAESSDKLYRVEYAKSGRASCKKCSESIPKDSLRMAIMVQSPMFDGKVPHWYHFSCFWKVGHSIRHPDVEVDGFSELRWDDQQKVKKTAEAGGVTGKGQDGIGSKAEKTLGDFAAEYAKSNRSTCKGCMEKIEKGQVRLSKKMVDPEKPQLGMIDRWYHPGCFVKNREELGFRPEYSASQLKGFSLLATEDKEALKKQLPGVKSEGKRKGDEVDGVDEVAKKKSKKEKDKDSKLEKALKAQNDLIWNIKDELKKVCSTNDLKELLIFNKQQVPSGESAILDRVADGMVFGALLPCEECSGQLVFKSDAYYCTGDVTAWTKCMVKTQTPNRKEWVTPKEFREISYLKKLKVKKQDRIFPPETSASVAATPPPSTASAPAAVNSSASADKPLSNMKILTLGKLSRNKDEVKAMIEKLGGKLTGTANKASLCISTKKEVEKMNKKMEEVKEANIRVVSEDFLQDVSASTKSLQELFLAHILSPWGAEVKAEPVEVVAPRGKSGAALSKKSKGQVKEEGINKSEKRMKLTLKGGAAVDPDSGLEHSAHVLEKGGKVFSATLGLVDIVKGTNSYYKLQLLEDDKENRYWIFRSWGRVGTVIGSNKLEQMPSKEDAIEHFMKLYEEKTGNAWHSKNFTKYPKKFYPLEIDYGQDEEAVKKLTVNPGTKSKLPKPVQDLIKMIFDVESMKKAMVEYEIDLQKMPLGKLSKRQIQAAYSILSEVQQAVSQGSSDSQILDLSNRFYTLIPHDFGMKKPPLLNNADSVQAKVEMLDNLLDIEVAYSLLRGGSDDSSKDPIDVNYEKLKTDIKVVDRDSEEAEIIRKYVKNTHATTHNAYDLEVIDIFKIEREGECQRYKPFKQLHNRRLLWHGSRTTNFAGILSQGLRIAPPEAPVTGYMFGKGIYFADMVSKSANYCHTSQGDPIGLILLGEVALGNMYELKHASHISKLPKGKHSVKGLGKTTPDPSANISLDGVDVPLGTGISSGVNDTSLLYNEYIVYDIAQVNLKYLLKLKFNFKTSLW

As to `O=C(Cc1n[nH]c(=O)c2c1CCCC2)NCCCCN1CCOCC1` [化合物A, 4−(N−(4−(モルホリン−4−イル)ブチル)カルバモイルメチル)−5,6,7,8−テトラヒドロフタラジン−1(2H)−オン], the “pH of supernatant of aqueous suspension” value in data set [1] is on record as approximately 9.4. In the data set “Toxicity of compound A”, the toxicity result is on record as “非常に低い”. Besides, the dissolution in water result in data set [2] (near neutral (e.g. pH 6 or above)) is on record as “速やかに水に溶解せず”; in data set [2] (pH about 5 or below), “速やかに水に溶解する”. The solubility in water result in data set [2] (pH 8 or above) is given as “低い”; in data set [2] (pH about 7 or below (adjusted)), “著しく上昇; also recorded: 著しく向上”; in data set [2] (water) it was “極めて低く”. Further, the PARP inhibitory activity result in data set [3] was “阻害活性を有する; also recorded: PARP阻害活性を有する”.
